For this assay, the target named is Human-derived nicotinamide adenine dinucleotide phosphate-dependent steroid dehydrogenase (NSDHL) (Homo sapiens (Human), UniProt Q15738). Kind of assay: NSDHL inhibitory activity evaluation: decrease of NADH fluorescence amplification when inhibitor releases NADH from NSDHL. It counts as binding. The note with it: recombinant NSDHL (16 μM, 50 μl) + NADH (50 μM, 50 μl), room temperature 10 min, Ex 340 nm/Em 460 nm, 96-well plate. As for the experimental part: In order to evaluate the nicotinamide adenine dinucleotide phosphate-dependent steroid dehydrogenase (NSDHL) inhibitory activity of the compound provided in one aspect of the present invention, the following experiment was performed.
Human-derived nicotinamide adenine dinucleotide phosphate-dependent steroid dehydrogenase (NSDHL), sequence (Q15738 whole entry): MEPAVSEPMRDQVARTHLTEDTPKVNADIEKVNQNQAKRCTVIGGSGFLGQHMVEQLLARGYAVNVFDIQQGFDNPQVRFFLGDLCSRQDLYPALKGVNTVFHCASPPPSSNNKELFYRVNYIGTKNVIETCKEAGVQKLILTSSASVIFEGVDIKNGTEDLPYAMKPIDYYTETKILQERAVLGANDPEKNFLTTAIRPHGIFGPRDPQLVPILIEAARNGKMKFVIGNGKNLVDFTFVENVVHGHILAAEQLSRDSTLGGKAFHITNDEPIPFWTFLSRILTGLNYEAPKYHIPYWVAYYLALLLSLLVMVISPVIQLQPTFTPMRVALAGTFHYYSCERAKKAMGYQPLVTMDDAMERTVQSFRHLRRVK
Human-derived nicotinamide adenine dinucleotide phosphate-dependent steroid dehydrogenase (NADP-dependent steroid dehydrogenase-like; NSDHL) was expressed in large quantities in E. coli. The NSDHL gene was inserted into pET21a plasmid, which was cloned into E. coli C41 (DE3). After culturing E. coli in Luria Broth medium at 37° C., IPTG was added thereto at the time when OD600 was about 0.7 to express NSDHL, followed by culture at 37° C. for 4 hours.
The cultured E. coli was centrifuged, and the cells were stored at −80° C. The cells were crushed by sonification, which was first purified using IMAC (Immobilized metallo-affinity chromatography), and then finally purified using SEC (Size exclusion chromatography). The composition of the buffer solution for storing NSDHL was as follows: 40 mM HEPES (pH 8.0), 150 mM NaCl, and 0.5 mM TCEP.
When dehydrogenase binds to NADH, fluorescence intensity is amplified compared to NADH alone. In other words, if the dehydrogenase, NSDHL, is treated with an inhibitor in a state in which it is bound to NADH, the fluorescence intensity will be reduced because NADH is released. FIG. 1 is a graph showing the results of measuring the fluorescence intensity of NADH according to the concentration of NSDHL.
In addition, it was also confirmed in FIG. 2 that an experiment for inhibiting was possible using NAD+, which is an oxidized form of NADH, but is not measured in the fluorescence measurement range of NADH. FIG. 2 is a graph showing the results of an experiment for inhibiting NSDHL and NADH conjugate using NAD+.
An activity assay was performed using a 96-well plate, and an experiment was performed after adding an inhibitor to each well at the final concentrations of 200 μM≤1 μM. Particularly, 50 μl of 16 μM NSDHL, 50 mM HEPES, 20% glycerol were added to each well, and then 50 ul of 50 μM NADH was added to each well, followed by reaction at room temperature for 10 minutes. The fluorescence level of each well was measured using SpectraMax M5 (Molecular Devices) equipment (Ex: 340 nm, Em: 460 nm). The values were corrected by separately measuring the absorbance of the compound and the buffer solution, and the degree of inhibition of each compound against NSDHL was measured based on the NADH fluorescence at the same concentration without binding. IC50 (inhibitory concentration at 50%) was calculated using GraphPad Prism software.
Turning to `O=C(O)CN1C(=O)/C(=C/c2cc(-c3ccc(F)cc3)ccc2OCc2ccc(C(=O)O)cc2)SC1=S` [Example 1, (Z)-4-((3-((3-(carboxymethyl)-4-oxo-2-thioxothiazolidin-5-ylidene)methyl)-4′-fluorobiphenyl-4-yloxy)methyl)benzoic acid], the IC50 came to 10.4 µM.

With `O=C(O)CN1C(=O)/C(=C/c2cn(-c3ccc(F)cc3)nc2-c2cccc(Cl)c2)SC1=S` [Example 2, (Z)-2-(5-((3-(3-chlorophenyl)-1-(4-fluorophenyl)-1H-pyrazole-4-yl)methylene)-4-oxo-2-thioxothiazolidin-3-yl)acetic acid], the IC50 turned out to be 12.8 µM.

Regarding `COc1cccc(OCc2ccccc2)c1/C=C1\SC(=S)N(CC(=O)O)C1=O` [Example 3, (Z)-2-(5-(2-(benzyloxy)-6-methoxybenzylidene)-4-oxo-2-thioxothiazolidin-3-yl)acetic acid], the IC50 turned out to be 19.9 µM.

For the molecule `O=C(O)CN1C(=O)/C(=C/c2ccc(O)cc2OCc2ccccc2Br)SC1=S` [Example 4, (Z)-2-(5-(2-(2-bromobenzyloxy)-4-hydroxybenzylidene)-4-oxo-2-thioxothiazolidin-3-yl)acetic acid], the IC50 stood at 17.8 µM.

For `O=C(O)CN1C(=O)/C(=C/c2cc(Br)ccc2OCc2ccccc2I)SC1=S` [Example 5, (Z)-2-(5-(5-bromo-2-(2-iodobenzyloxy)benzylidene)-4-oxo-2-thioxothiazolidin-3-yl)acetic acid], the IC50 amounted to 27.1 µM.

The values above are taken from patent US12221426B2, “Inhibitory material against human body-derived nicotinamide adenine dinucleotide phosphate-dependent steroid dehydrogenase-like, and anticancer agent comprising same as effective ingredient or pharmaceutical composition comprising same as effective ingredient for treatment of hyperlipidemia” (SEOUL NATIONAL UNIVERSITY R&DB FOUNDATION, priority 2018, dated 2025).
